# From ChEMBL document CHEMBL1201862, “PubChem BioAssay data set” (2004)
# Calls of active or inactive are those of the source.
# Legend:
# HEK293 [1] = experiment: SAR Analysis of small molecule inhibitors of B-cell specific antigen receptor-induced NF-kB activation in a HEK-293T cell line using a luminescence assay - Set 2. [Related pubchem assays (depositor defined):AID435022, AID435025, AID489021]; assay type: functional, cell-based; details: Homo sapiens
# Jurkat = experiment: SAR Analysis of small molecule inhibitors of […] specific antigen receptor-induced NF-kB activation in a Jurkat cell line using a luminescence assay - Set 3. [Related pubchem assays (depositor defined):AID435022, AID435025, AID465]; assay type: functional, cell-based; details: Homo sapiens
# HEK293 [2] = experiment: HEK293T cell viability loss, resazurin readout – resazurin fluorescence, cytotoxicity control for NF-kB activator project, SAR follow-up (AID 493251); assay type: functional, cell-based; details: Homo sapiens
# Wee1-like protein kinase = Wee1-like protein kinase (Homo sapiens, UniProt P30291); experiment: Navigating the Kinome. Panel member name: WEE1; assay type: functional
# [3] = biological target: Cell division cycle 7-related protein kinase (Homo sapiens, UniProt O00311); assay type: functional;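 also: value obtained from a kinome-wide kinase panel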
# Sequence of Cell division cycle 7-related protein kinase (O00311 whole entry): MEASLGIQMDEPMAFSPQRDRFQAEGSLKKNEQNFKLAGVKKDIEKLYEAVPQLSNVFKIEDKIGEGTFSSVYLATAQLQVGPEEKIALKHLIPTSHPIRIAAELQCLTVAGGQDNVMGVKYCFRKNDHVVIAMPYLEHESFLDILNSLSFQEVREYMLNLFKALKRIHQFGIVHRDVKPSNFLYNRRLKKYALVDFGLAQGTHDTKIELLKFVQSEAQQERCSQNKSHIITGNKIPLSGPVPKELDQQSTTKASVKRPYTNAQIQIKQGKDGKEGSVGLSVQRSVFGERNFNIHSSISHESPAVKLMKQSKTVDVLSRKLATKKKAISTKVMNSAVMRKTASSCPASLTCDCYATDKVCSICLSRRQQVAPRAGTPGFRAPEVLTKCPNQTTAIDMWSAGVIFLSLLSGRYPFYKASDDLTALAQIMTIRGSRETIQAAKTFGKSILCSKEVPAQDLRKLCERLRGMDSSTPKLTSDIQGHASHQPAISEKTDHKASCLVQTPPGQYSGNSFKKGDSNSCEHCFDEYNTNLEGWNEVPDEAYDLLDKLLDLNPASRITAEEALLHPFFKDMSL
# [4] = biological target: Insulin-like growth factor 1 receptor (Homo sapiens, UniProt P08069); experiment: Navigating the Kinome. Panel member name: IGF1R; assay type: functional
# Sequence of Insulin-like growth factor 1 receptor (P08069 31-736 limits assumed): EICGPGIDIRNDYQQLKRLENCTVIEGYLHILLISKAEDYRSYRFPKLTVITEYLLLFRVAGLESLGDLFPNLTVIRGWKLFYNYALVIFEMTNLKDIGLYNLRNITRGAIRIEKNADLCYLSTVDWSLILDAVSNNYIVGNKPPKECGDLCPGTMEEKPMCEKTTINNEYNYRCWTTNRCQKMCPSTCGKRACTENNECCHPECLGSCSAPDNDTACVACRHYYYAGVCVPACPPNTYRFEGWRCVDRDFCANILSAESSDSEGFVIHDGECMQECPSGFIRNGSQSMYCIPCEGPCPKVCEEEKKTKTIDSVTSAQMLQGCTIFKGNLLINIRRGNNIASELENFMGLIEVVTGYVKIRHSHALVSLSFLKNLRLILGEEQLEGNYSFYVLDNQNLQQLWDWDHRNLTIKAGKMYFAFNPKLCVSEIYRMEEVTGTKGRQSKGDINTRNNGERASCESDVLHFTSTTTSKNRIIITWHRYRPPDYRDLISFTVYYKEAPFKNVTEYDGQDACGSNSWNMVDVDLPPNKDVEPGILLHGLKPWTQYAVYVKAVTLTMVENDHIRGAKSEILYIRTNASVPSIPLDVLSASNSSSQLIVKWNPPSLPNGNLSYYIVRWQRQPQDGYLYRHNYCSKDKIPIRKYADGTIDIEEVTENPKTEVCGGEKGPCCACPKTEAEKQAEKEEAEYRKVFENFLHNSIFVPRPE
# Sequence of Insulin-like growth factor 1 receptor (P08069 741-1367 limits assumed): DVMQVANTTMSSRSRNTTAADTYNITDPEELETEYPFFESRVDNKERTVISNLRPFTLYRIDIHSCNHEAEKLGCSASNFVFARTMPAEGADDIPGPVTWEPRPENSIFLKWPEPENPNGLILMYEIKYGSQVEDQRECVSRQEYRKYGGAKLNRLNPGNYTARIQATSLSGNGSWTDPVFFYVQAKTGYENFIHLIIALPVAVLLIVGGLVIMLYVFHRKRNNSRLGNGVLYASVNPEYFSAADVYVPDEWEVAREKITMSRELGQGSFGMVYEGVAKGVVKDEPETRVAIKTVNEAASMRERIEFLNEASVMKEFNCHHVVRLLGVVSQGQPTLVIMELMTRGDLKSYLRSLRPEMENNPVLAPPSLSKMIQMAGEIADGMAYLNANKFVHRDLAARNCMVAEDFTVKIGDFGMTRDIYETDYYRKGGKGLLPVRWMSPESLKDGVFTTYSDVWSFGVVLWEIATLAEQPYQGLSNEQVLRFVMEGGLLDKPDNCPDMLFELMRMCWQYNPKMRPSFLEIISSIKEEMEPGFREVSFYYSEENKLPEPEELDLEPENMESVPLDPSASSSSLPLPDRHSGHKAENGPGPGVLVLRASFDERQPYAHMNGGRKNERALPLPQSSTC
# [5] = biological target: Mitogen-activated protein kinase kinase kinase kinase 4 (Homo sapiens, UniProt O95819); assay type: functional
# Sequence of Mitogen-activated protein kinase kinase kinase kinase 4 (O95819 whole entry): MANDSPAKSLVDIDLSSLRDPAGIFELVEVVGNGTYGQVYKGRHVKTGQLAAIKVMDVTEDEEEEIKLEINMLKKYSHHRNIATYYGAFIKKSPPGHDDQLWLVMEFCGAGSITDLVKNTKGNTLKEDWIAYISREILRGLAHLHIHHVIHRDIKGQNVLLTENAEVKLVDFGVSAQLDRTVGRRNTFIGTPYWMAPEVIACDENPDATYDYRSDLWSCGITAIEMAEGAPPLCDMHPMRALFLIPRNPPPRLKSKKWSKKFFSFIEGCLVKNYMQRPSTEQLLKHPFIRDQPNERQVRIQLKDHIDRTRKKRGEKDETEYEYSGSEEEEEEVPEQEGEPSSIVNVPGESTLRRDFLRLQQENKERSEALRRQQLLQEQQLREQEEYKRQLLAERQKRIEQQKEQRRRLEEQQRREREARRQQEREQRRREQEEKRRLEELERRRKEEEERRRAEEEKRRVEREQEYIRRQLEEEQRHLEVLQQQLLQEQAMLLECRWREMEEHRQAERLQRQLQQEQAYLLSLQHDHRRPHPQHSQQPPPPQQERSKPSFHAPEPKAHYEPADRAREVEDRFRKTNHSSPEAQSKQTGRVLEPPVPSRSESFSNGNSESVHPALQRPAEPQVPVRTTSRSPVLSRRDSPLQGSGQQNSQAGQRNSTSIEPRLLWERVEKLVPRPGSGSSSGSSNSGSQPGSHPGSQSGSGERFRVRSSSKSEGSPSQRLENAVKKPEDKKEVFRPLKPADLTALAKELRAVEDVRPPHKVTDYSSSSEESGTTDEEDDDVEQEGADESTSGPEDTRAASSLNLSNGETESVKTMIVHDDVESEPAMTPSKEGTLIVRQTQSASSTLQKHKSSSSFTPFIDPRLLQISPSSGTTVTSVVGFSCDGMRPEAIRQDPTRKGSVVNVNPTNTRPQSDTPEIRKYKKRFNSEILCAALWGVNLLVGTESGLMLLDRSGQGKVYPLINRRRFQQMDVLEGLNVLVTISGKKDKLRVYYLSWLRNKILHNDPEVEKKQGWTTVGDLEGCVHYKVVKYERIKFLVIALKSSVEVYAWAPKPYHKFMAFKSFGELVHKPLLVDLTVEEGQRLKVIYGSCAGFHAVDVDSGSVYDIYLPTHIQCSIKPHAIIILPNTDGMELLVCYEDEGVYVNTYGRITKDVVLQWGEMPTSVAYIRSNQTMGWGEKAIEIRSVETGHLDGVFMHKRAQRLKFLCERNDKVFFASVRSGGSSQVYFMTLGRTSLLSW
# [6] = biological target: Tyrosine-protein kinase BTK (Homo sapiens, UniProt Q06187); assay type: functional
# [7] = biological target: Vascular endothelial growth factor receptor 2 (Homo sapiens, UniProt P35968); assay type: functional
# [8] = biological target: Tyrosine-protein kinase Lck (Homo sapiens, UniProt P06239); assay type: functional;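 also: lck was assayed as one member of a kinase panel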
# Misshapen-like kinase 1 = Misshapen-like kinase 1 (Homo sapiens, UniProt Q8N4C8); assay type: functional;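 also: kinome panel screen with MINK as the panel member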
# [9] = biological target: Macrophage colony-stimulating factor 1 receptor (Homo sapiens, UniProt P07333); assay type: functional;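 also: value comes from the Navigating the Kinome screening panel, CSF1R member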
# [10] = biological target: Serine/threonine-protein kinase TAO1 (Homo sapiens, UniProt Q7L7X3); assay type: functional
# Sequence of Serine/threonine-protein kinase TAO1 (Q7L7X3 whole entry): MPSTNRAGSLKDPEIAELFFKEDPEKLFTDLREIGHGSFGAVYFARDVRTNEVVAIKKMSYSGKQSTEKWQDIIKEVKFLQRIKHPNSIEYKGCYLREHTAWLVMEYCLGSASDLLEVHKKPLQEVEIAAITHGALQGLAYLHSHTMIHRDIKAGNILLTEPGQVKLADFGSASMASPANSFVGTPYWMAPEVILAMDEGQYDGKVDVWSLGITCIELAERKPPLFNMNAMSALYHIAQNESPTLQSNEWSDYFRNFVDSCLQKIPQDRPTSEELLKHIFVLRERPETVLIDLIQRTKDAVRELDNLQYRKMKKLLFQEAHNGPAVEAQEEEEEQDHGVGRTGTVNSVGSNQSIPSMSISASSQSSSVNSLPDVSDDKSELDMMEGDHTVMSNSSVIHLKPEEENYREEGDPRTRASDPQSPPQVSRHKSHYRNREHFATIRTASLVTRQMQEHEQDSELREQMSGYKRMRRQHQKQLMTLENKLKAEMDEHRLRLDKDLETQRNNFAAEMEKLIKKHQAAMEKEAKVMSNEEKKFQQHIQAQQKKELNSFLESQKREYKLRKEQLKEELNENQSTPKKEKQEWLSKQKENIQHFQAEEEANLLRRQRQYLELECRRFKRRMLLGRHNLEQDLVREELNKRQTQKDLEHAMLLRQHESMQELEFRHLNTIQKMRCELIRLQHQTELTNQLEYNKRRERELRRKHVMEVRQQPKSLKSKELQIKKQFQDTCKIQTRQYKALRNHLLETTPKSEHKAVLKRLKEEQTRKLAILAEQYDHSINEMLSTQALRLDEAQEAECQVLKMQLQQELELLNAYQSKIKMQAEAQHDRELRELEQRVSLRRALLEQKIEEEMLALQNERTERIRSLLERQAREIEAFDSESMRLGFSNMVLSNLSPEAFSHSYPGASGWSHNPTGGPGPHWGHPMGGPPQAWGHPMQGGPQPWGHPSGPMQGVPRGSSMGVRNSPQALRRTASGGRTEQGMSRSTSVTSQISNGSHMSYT
# Focal adhesion kinase 1 = Focal adhesion kinase 1 (Homo sapiens, UniProt Q05397); assay type: functional;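 also: measured as one member of a kinome panel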
# [11] = biological target: Tyrosine-protein kinase Fyn (Homo sapiens, UniProt P06241); assay type: functional
# Sequence of Tyrosine-protein kinase Fyn (P06241 whole entry): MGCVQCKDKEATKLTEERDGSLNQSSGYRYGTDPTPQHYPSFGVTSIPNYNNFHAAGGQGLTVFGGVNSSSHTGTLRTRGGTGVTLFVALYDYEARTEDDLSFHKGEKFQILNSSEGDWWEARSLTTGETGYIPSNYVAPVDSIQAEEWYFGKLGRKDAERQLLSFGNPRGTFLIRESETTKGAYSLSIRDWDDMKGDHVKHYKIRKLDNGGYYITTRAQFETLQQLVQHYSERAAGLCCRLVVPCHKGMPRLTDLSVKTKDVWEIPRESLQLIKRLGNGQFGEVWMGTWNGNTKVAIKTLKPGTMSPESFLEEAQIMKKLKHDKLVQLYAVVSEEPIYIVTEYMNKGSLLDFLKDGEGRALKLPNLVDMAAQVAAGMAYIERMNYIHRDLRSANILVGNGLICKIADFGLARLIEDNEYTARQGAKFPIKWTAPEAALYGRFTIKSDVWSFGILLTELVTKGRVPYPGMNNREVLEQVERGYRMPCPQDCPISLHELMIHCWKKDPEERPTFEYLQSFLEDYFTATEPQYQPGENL
# [12] = biological target: T1, Apoptotic protease-activating factor 1 (Homo sapiens, UniProt O14727); experiment: SAR analysis of small molecule inhibitors of Apaf-1 in a Fluorescent assay.; assay type: functional; details: read-out: IC50_Mean
# T1 sequence (O14727 whole entry): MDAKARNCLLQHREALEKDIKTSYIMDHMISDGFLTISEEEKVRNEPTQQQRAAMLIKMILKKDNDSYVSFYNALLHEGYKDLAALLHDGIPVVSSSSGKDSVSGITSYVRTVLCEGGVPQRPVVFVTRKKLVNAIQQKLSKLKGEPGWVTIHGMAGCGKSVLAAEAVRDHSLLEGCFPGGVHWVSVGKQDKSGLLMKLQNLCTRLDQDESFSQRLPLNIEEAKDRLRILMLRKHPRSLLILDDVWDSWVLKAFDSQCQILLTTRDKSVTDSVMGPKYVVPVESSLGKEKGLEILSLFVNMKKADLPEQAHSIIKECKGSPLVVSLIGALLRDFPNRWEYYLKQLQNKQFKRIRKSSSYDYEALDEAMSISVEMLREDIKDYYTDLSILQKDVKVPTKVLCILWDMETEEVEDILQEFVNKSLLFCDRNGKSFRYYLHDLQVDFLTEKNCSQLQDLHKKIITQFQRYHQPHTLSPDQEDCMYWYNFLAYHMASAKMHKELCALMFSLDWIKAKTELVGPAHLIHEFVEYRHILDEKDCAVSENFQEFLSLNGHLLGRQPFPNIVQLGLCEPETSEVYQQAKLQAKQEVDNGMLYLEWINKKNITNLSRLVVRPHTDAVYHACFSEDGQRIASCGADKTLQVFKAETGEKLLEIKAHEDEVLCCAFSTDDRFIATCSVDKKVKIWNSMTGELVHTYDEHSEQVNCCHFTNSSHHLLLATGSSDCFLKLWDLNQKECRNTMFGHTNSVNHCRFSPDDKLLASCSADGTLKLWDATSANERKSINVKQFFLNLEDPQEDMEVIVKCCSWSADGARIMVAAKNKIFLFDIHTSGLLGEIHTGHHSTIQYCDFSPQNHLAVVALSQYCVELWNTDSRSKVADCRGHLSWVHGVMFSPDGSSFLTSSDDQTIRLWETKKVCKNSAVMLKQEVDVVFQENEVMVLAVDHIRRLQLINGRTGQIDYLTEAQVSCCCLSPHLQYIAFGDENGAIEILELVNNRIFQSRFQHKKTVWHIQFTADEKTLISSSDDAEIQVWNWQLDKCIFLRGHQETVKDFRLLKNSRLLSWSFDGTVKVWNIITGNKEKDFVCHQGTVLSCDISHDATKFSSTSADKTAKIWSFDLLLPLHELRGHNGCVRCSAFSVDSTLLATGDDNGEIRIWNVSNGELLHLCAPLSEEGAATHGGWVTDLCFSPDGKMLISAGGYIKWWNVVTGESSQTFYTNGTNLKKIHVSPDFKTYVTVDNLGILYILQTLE
# BJ [13] = experiment: cells; assay type: functional, cell-based; details: Homo sapiens
# Streptokinase A = biological target: T2, Streptokinase A (Streptococcus pyogenes serotype M1, UniProt P10520); experiment: viability-normalized secreted streptokinase activity reduction – plasminogen activation absorbance, OD405, dose response (AID 1914); assay type: functional, Streptococcus pyogenes M1 GAS;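 also: secreted streptokinase activity via plasminogen activation per viability signal from cell pellet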
# T2 sequence (P10520 whole entry): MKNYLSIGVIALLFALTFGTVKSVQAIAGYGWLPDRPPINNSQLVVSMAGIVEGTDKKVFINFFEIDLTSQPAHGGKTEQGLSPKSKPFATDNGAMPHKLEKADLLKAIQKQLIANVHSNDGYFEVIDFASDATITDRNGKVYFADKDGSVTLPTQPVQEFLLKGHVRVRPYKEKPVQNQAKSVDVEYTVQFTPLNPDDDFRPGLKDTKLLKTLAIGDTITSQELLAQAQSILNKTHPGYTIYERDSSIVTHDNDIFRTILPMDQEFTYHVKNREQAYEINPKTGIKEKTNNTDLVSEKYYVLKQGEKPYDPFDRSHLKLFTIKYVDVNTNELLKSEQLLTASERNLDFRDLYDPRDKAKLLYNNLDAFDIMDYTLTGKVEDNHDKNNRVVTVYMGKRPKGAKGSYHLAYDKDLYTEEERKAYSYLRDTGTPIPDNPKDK
# BJ [14] = experiment: growth inhibition of engineered Ras-driven BJ cells – cell-based, alamar blue fluorescence, cherrypicked samples, dose response (AID 2631); assay type: functional; details: Homo sapiens;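 also: confirmatory dose-response assay in RAS-dependent BJ fibroblasts engineered with TERT, LT and ST, with cytotoxicity read by fluorescence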
# [15] = tested on: Streptococcus sp. 'group A'; experiment: Streptococcus pyogenes SK(-)GAS viability under kanamycin – luminescence, BacTiterGlo, confirmation, counter-screen for streptokinase expression inhibitor project, dose response (AID 1900); assay type: functional, organism-based
# cells [16] = assay type: functional, cell-based
# cells [17] = assay type: functional, cell-based; remark: listed apart in the source
# BJ [18] = experiment: BJ-TERT-LT-ST fibroblast viability loss – cell-based, RAS-independent, luminescence, dose response (AID 1935); assay type: functional; details: Homo sapiens;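 also: BJ fibroblasts immortalized with TERT plus LT and ST oncogenes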
# [19] = DRD fibroblast viability loss – cell-based, non-viral oncogenic, luminescence, dose response (AID 1934); assay type: functional; details: Homo sapiens
# BJ [20] = experiment: BJ-TERT fibroblast viability loss – cell-based, RAS-independent, luminescence, dose response (AID 1933); assay type: functional; details: Homo sapiens
# INS1 = experiment: INS-1E survival protection against cytokine death – cell-based, luminescence, retest, dose response (AID 449756); assay type: functional; details: Rattus norvegicus;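 also: cell death triggered by IL-1 beta plus TNF-alpha plus IFN-gamma mixture; protective hits raise ATP signal compared with cytokine alone wells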
# Streptococcus = experiment: GAS UMAA2166 growth inhibition – luminescence, BacTiterGlo, counter-screen for streptokinase expression inhibitor project, dose response (AID 1915); assay type: functional, organism-based;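 also: potency for reduction of bacterial viability or growth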
# [21] = biological target: T1, Apoptotic protease-activating factor 1; experiment: SAR analysis of small molecule Inhibitors of Apaf-1 in a Fluorescent assay - set 2.; assay type: functional; details: read-out: IC50_Mean
# [22] = SAR analysis of small molecule inhibitors of Apaf-1 using a LZ-Caspase-9/Caspase-3 Fluorescent Selectivity assay - Set 2.; assay type: functional; details: read-out: IC50_Mean
# Cytochrome P450 3A4 = Cytochrome P450 3A4 (Homo sapiens, UniProt P08684);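 also: CYP3A4 tested as one member of a cytochrome P450 panel screen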
smiles,measurement,setting,value
CCOc1ccc(-c2nc(CSCC(=O)N3CCCC3)c(C)o2)cc1,IC50,HEK293 [1],46.6 µM (inactive)
same,IC50,Jurkat,> 80 µM (inactive)
same,IC50,HEK293 [2],> 80 µM (inactive)
N#Cc1cccc(Nc2ncnc(Nc3ccc(F)cc3)n2)c1,Ki,Wee1-like protein kinase,> 3.16 µM (inactive)
same,Ki,[3],0.1 µM (active)
O=C(Cc1ccccc1)Nc1cccc(-c2nc3sccn3c2-c2ccnc(Nc3ccccc3Cl)n2)c1,Ki,[4],1.26 µM (active)
same,Ki,[5],> 5.01 µM (inactive)
same,Ki,[6],> 6.31 µM (inactive)
same,Ki,[7],0.501 µM (active)
same,Ki,[8],> 6.31 µM (inactive)
same,Ki,Misshapen-like kinase 1,> 5.01 µM (inactive)
same,Ki,[9],0.631 µM (active)
same,Ki,[10],> 6.31 µM (inactive)
same,Ki,Focal adhesion kinase 1,3.16 µM (active)
same,Ki,[11],> 6.31 µM (inactive)
Cc1nc2cc(-c3nc4cc(NC(=O)c5cccs5)ccc4[nH]3)ccc2[nH]1,IC50,[12],41.2 µM (active)
CCCc1sc(N/N=C/c2ccccn2)nc1-c1ccc(F)cc1,EC50,BJ [13],10.7 µM (active)
same,EC50,Streptokinase A,> 150 µM (not active)
same,EC50,BJ [14],19.4 µM (active)
same,EC50,[15],7.2 µM (active)
same,EC50,cells [16],38.1 µM (active)
same,EC50,cells [17],74.4 µM (active)
same,EC50,BJ [18],7.71 µM (active)
same,EC50,[19],19.9 µM (active)
same,EC50,BJ [20],6.54 µM (active)
same,AC50,INS1,0.904 µM (active)
same,EC50,Streptococcus,10.8 µM (active)
O=C1C(=O)N(Cc2ccc(Cl)c(Cl)c2)c2ccccc21,IC50,[21],34 µM (active)
same,IC50,[22],22.7 µM (active)
same,AC50,Cytochrome P450 3A4,7.94 µM (inconclusive)
